# Results published in patent US12059393B2, “Compositions for topical treatment of radiation dermatitis” (Akos Biosciences, Inc, priority 2022, dated 2024).
# Assays:
# [1] = tested on: 3D in vitro skin model containing epidermal keratinocytes and dermal fibroblasts; test: Gene expression changes (178 genes) in 3D in vitro skin model; format: cell-based; settings: for Regulated genes (function): UV exposed tissues, baseline Group K
# Experimental: A 3D in vitro skin model containing epidermal keratinocytes and dermal fibroblasts was used. Some tissues were irradiated with 200 mJ UVB/cm^2. Test materials were applied topically for 24 hours (after UVB exposure) and an MTT assay was used to check the viability of cells. The following treatment groups were used: • olive oil (no CBD); • CBD in olive oil in concentrations of 30, 60, 120, and 250 mg/mL; • No treatment; and • Triton-X® as positive control.
# Next, changes in gene expression for 178 genes were measured in tissues. Statistical significance was determined using unpaired t-test, P<0.05, N=4.
# [2] = tested on: acute radiation-induced dermatitis; test: Skin redness scoring in mouse radiation dermatitis model; format: in vivo, Balb/c mice; parameters: key to Redness score (mean): visual redness score, scale 0 to 3 in 0.5 increments; settings: for Redness score % Change CBD vs. Group 3: vs olive oil only; for Redness score % Change CBD vs. Group 2: vs radiation only
# Experimental: A study was performed on mice to determine the efficacy of topically-dosed CBD in an olive oil vehicle for the treatment of acute radiation-induced dermatitis. Three different CBD dosages were used— 30 mg/mL (3 wt %), 120 mg/mL (12 wt %), and 250 mg/mL (25 wt %).
# 144 female Balb/c mice with an average starting body weight (±SEM) of 17.96±0.12 grams were randomized into six (6) groups of 24 animals each, as follows:
# The control group (Group 1) was not irradiated. The animals in Groups 2-6 were anesthetized via a single intraperitoneal injection of xylazine and ketamine prior to being administered a single dose of 30 Grays (Gy) of radiation directed at a 2 cm×4 cm patch of shaved dorsal skin on Day 0. Radiation was generated by a 160 kVp (15-ma) X-ray source at a focal distance of 10 cm, hardened with a 0.35 mm Cu filtration system at a rate of approximately 3.2 Gy/minute.
# Dosing for animals in Groups 3-6 began on Day 0 immediately after radiation. Treatments were administered topically (0.1 mL per animal) daily from Days 0-28.
# Starting on Day 8 and continuing every other day thereafter (Days 8-28), each animal was evaluated for skin redness and dermatitis, and photographed for subsequent blinded scoring of dermatitis at the completion of the study. Body weight was taken daily.
# Skin redness was scored visually by comparison to a photographic scale, and reported on a scale of 0 to 3 in 0.5 unit increments. The scale is described in the table below:
# Data were evaluated using one-way ANOVA with Dunnett's multiple comparisons test to compare all groups to the vehicle control group using GraphPad Prism 8.4.3 (La Jolla, CA Duration of dermatitis data was evaluated using the Chi-square test to compare all groups to the vehicle-control group and radiation only group using SigmaPlot 11.0 (Systat Software, Inc.). Statistical significance was achieved when p<0.05.
# [3] = tested on: acute radiation-induced dermatitis; test: Blinded clinical dermatitis scoring in mouse radiation dermatitis model; format: in vivo, Balb/c mice; settings: 150 mg/mL CBD
compound,measurement,setting,value
"C=C(C)[C@@H]1CCC(C)=C[C@H]1c1c(O)cc(CCCCC)cc1O [CBD, 2-[(1R,6R)-6-Isopropenyl-3-methylcyclohex-2-en-1-yl]-5-pentylbenzene-1,3-diol]",Regulated genes (function),[1]; 30 mg/mL CBD in olive oil (Group G),"associated with cell renewal, tissue remodeling, anti-apoptotic pathway, and extracellular matrix integrity"
same,Regulated genes (function),[1]; 120 mg/mL CBD in olive oil (Group I),associated with antioxidant/stress response
same,Genes with FC of 2 or greater,"[1]; CBD in olive oil 30-250 mg/mL (Groups B-E), healthy tissues, baseline Group A (olive oil)",four
same,Redness score (mean),"[2]; CBD-treated groups condensed (30, 120, 250 mg/mL), Day 8",0.81
same,Redness score (mean),"[2]; CBD-treated groups condensed, Day 10",1.06
same,Redness score (mean),"[2]; CBD-treated groups condensed, Day 12",1.07
same,Redness score (mean),"[2]; CBD-treated groups condensed, Day 14",1.16
same,Redness score (mean),"[2]; CBD-treated groups condensed, Day 16",1.43
same,Redness score (mean),"[2]; CBD-treated groups condensed, Day 18",1.40
same,Redness score (mean),"[2]; CBD-treated groups condensed, Day 20",1.43
same,Redness score (mean),"[2]; CBD-treated groups condensed, Day 22",1.50
same,Redness score (mean),"[2]; CBD-treated groups condensed, Day 24",1.18
same,Redness score (mean),"[2]; CBD-treated groups condensed, Day 26",1.04
same,Redness score (mean),"[2]; CBD-treated groups condensed, Day 28",0.89
same,Mean redness scores compared against Group 2 (radiation only),"[2]; CBD-treated groups considered together, p<0.05",statistically significant reduction
same,Redness scores compared to Group 2,"[2]; CBD-treated groups, after Day 14",consistently lower
same,Redness scores compared to Group 3 (olive oil only),"[2]; CBD-treated groups, all time points",consistently lower
same,Redness score % Change CBD vs. Group 3,[2]; Day 8,−16.13%
same,Redness score % Change CBD vs. Group 3,[2]; Day 10,−30.61%
same,Redness score % Change CBD vs. Group 3,[2]; Day 12,−32.68%
same,Redness score % Change CBD vs. Group 3,[2]; Day 14,−27.45%
same,Redness score % Change CBD vs. Group 3,[2]; Day 16,−29.93%
same,Redness score % Change CBD vs. Group 3,[2]; Day 18,−21.71%
same,Redness score % Change CBD vs. Group 3,[2]; Day 20,−23.70%
same,Redness score % Change CBD vs. Group 3,[2]; Day 22,−32.08%
same,Redness score % Change CBD vs. Group 3,[2]; Day 24,−25.44%
same,Redness score % Change CBD vs. Group 3,[2]; Day 26,−30.56%
same,Redness score % Change CBD vs. Group 3,[2]; Day 28,−42.34%
same,Redness score % Change CBD vs. Group 2,[2]; Day 8,87.50%
same,Redness score % Change CBD vs. Group 2,[2]; Day 12,3.83%
same,Redness score % Change CBD vs. Group 2,[2]; Day 14,−3.65%
same,Redness score % Change CBD vs. Group 2,[2]; Day 16,−21.32%
same,Redness score % Change CBD vs. Group 2,[2]; Day 18,−24.73%
same,Redness score % Change CBD vs. Group 2,[2]; Day 20,−25.07%
same,Redness score % Change CBD vs. Group 2,[2]; Day 22,−34.00%
same,Redness score % Change CBD vs. Group 2,[2]; Day 24,−42.28%
same,Redness score % Change CBD vs. Group 2,[2]; Day 26,−45.44%
same,Redness score % Change CBD vs. Group 2,[2]; Day 28,−45.68%
same,% Days ≥2,[3],61.22%
